Like-named read-outs stand apart in the source and are kept apart here.
Key:
Assay type in all cases: binding
[1] = system: HCoV-OC43 gRNA and sgRNA; settings: for target (unweighted spectral count): OC43 Probe II, infected cells; for target (spectral count) / background (spectral count): type s_36_m, Probe II; for target (spectral count): HCoV-OC43-infected HCT-8 cells; for background (spectral count): uninfected-probe control
[2] = system: gRNA of HCoV-OC43; settings: for target (spectral count) / background (spectral count): type g_36_m, 36 hpi, Probe I; for target (spectral count): HCoV-OC43-infected HCT-8 cells; for background (spectral count): uninfected-probe control
[3] = system: SARS-CoV-2 gRNA and sgRNAs; settings: for target (unweighted spectral count in RNP capture): Probe II capture, LC-MS/MS LFQ; for background (unweighted spectral count in control): no-probe control pull-down, used as background for Probe II; for target (unweighted spectral count of the protein in the RNP capture experiment): LC-MS/MS label-free quantification, probe pool not given; for back-ground (unweighted spectral count of the protein in the control experiment): protein background of the control (e.g. no-probe) experiment
[4] = system: SARS-CoV-2 gRNA; settings: for target (unweighted spectral count in RNP capture): Probe I capture, LC-MS/MS LFQ; for background (unweighted spectral count in control): no-probe control pull-down, used as background for Probe I; for target (unweighted spectral count of the protein in the RNP capture): LC-MS/MS, Probe I sample (first 199 lines of Table 2)
[5] = type n_48_v, 48 hpi, OC43 Probe II capture on infected cells
[6] = type n_48_v, 48 hpi, no-probe control on infected cells
[7] = type n_48_v: 48 hours post-infection, infected cells, OC43 Probe I, unweighted spectral count
[8] = type n_48_v: 48 hours post-infection, no-probe control on infected cells
[9] = 36 hpi, type n_36_v, tested against no-probe control, FDR<10%
[10] = 24 hpi (type n_24_v), tested against no-probe control
[11] = 24 hpi, type n_24_v, tested against no-probe control, FDR<10%
[12] = 12 hpi (type n_12_v), tested against no-probe control

ABCF1
target (unweighted spectral count, OC43 Probe II) [1, 5]: 5
background (unweighted spectral count, no-probe control) [1, 6]: 1
target (spectral count, OC43 Probe I RNP capture) [2, 7]: 7
background (spectral count, no-probe control) [2, 8]: 1

AKAP8
target (unweighted spectral count, OC43 Probe II capture) [1, 9]: 4

ATP13A1
target (unweighted spectral count, OC43 Probe II capture) [1, 9]: 6

C19orf66
target (unweighted spectral count, OC43 Probe II capture) [1, 9]: 4
target (unweighted spectral count, OC43 Probe II) [1, 5]: 6
background (unweighted spectral count, no-probe control) [1, 6]: 1

CCAR2: host protein, UniProt Q8N163
target (unweighted spectral count, OC43 Probe II capture) [1, 9]: 12
target (unweighted spectral count) [1, 10]: 8
target (unweighted spectral count, OC43 Probe II) [1, 5]: 20
background (unweighted spectral count, no-probe control) [1, 6]: 1
target (spectral count) ([1]; 36 hpi): 12
background (spectral count) ([1]; 36 hpi): 1
target (spectral count) [2]: 20
background (spectral count) [2]: 1
target (spectral count, OC43 Probe I RNP capture) [2, 7]: 23
background (spectral count, no-probe control) [2, 8]: 1

DDX39B
target (unweighted spectral count, OC43 Probe II) [1, 5]: 6
background (unweighted spectral count, no-probe control) [1, 6]: 1
target (spectral count, OC43 Probe I RNP capture) [2, 7]: 5
background (spectral count, no-probe control) [2, 8]: 1

DDX54
target (unweighted spectral count, OC43 Probe II capture) [1, 9]: 5

EEF1G
target (unweighted spectral count, OC43 Probe II capture) [1, 9]: 4

EIF4A1
target (unweighted spectral count in RNP capture) [3]: 8
background (unweighted spectral count in control) [3]: 1
target (unweighted spectral count) [1, 10]: 5

EIF4G1: host protein, UniProt Q04637
target (unweighted spectral count in RNP capture) [3]: 18
background (unweighted spectral count in control) [3]: 1
target (unweighted spectral count, OC43 Probe II capture) [1, 11]: 4
target (unweighted spectral count, OC43 Probe II capture) [1, 9]: 7
target (spectral count) ([1]; 36 hpi): 7
background (spectral count) ([1]; 36 hpi): 1

ENO1
target (unweighted spectral count in RNP capture) [3]: 22
background (unweighted spectral count in control) [3]: 4

ESYT1
target (unweighted spectral count, OC43 Probe II capture) [1, 9]: 4

EZR
target (unweighted spectral count in RNP capture) [4]: 5
background (unweighted spectral count in control) [4]: 1

FAM125A
target (unweighted spectral count in RNP capture) [3]: 97

FXR2
target (unweighted spectral count in RNP capture) [3]: 23
background (unweighted spectral count in control) [3]: 1
target (unweighted spectral count, OC43 Probe II capture) [1, 9]: 5
target (unweighted spectral count, OC43 Probe II) [1, 5]: 7
background (unweighted spectral count, no-probe control) [1, 6]: 1
target (spectral count, OC43 Probe I RNP capture) [2, 7]: 7
background (spectral count, no-probe control) [2, 8]: 1

GAPDH
target (unweighted spectral count in RNP capture) [3]: 12
background (unweighted spectral count in control) [3]: 1

GAPDM
target (unweighted spectral count of the protein in the RNP capture) [4]: 7

GEMIN5
target (unweighted spectral count of the protein in the RNP capture experiment) [3]: 5
back-ground (unweighted spectral count of the protein in the control experiment) [3]: 1

H2AFY
target (unweighted spectral count) [1, 12]: 4

HELZ2: host protein, UniProt Q9BYK8
target (unweighted spectral count, OC43 Probe II capture) [1, 9]: 16
target (unweighted spectral count, OC43 Probe II) [1, 5]: 20
background (unweighted spectral count, no-probe control) [1, 6]: 1
target (spectral count) ([1]; 36 hpi): 16
background (spectral count) ([1]; 36 hpi): 1
target (spectral count) [2]: 11
background (spectral count) [2]: 1
target (spectral count, OC43 Probe I RNP capture) [2, 7]: 8
background (spectral count, no-probe control) [2, 8]: 1

HIST1H1C
target (unweighted spectral count) [1, 12]: 7

HNRNPK: host protein, UniProt P61978
target (unweighted spectral count in RNP capture) [3]: 52
background (unweighted spectral count in control) [3]: 1
target (unweighted spectral count, OC43 Probe II capture) [1, 9]: 66
target (unweighted spectral count) [1, 10]: 28
target (unweighted spectral count, OC43 Probe II) [1, 5]: 63
background (unweighted spectral count, no-probe control) [1, 6]: 8
target (spectral count) ([1]; 36 hpi): 66
background (spectral count) ([1]; 36 hpi): 12
target (spectral count) [2]: 65
background (spectral count) [2]: 16
target (spectral count, OC43 Probe I RNP capture) [2, 7]: 64
background (spectral count, no-probe control) [2, 8]: 8

HSPA1B
target (unweighted spectral count, OC43 Probe II capture) [1, 9]: 4

HSPB1
target (unweighted spectral count in RNP capture) [4]: 5
background (unweighted spectral count in control) [4]: 1

KHDR ? S1
target (spectral count, OC43 Probe I RNP capture) [2, 7]: 18
background (spectral count, no-probe control) [2, 8]: 1

KHDRB51
target (unweighted spectral count in RNP capture) [3]: 13
background (unweighted spectral count in control) [3]: 1

KHDRBS1: host protein, UniProt Q07666
target (unweighted spectral count, OC43 Probe II capture) [1, 9]: 12
target (unweighted spectral count) [1, 10]: 10
target (unweighted spectral count, OC43 Probe II) [1, 5]: 14
background (unweighted spectral count, no-probe control) [1, 6]: 1
target (spectral count) ([1]; 36 hpi): 12
background (spectral count) ([1]; 36 hpi): 2
target (spectral count) [2]: 13
background (spectral count) [2]: 2

KHORBS1
target (unweighted spectral count of the protein in the RNP capture) [4]: 19

KRT16
target (unweighted spectral count) [1, 10]: 22

LARP4
target (unweighted spectral count in RNP capture) [3]: 10
background (unweighted spectral count in control) [3]: 1
target (unweighted spectral count, OC43 Probe II capture) [1, 9]: 4

LARP4B
target (unweighted spectral count of the protein in the RNP capture experiment) [3]: 6
back-ground (unweighted spectral count of the protein in the control experiment) [3]: 1
target (unweighted spectral count) [1, 10]: 6
target (unweighted spectral count, OC43 Probe II) [1, 5]: 6
background (unweighted spectral count, no-probe control) [1, 6]: 1

LGALS3
target (unweighted spectral count, OC43 Probe II) [1, 5]: 5
background (unweighted spectral count, no-probe control) [1, 6]: 1

LSM14A
target (unweighted spectral count in RNP capture) [3]: 8
background (unweighted spectral count in control) [3]: 1

MPG
target (unweighted spectral count) [1, 12]: 4

MYH9
target (unweighted spectral count of the protein in the RNP capture experiment) [3]: 9
back-ground (unweighted spectral count of the protein in the control experiment) [3]: 2
target (unweighted spectral count, OC43 Probe II capture) [1, 11]: 6
target (unweighted spectral count, OC43 Probe II) [1, 5]: 9
background (unweighted spectral count, no-probe control) [1, 6]: 1

NSP8
background (spectral count, no-probe control) [2]: 1
target (spectral count, OC43 Probe I RNP capture) [2]: 5

NUMA1
target (unweighted spectral count) [1, 12]: 5

PLEC
target (unweighted spectral count, OC43 Probe II) [1, 5]: 6
background (unweighted spectral count, no-probe control) [1, 6]: 1

PPIA
back-ground (unweighted spectral count of the protein in the control experiment) [3]: 10
target (unweighted spectral count, OC43 Probe II capture) [1, 9]: 13
target (unweighted spectral count, OC43 Probe II) [1, 5]: 12
background (unweighted spectral count, no-probe control) [1, 6]: 1
target (spectral count, OC43 Probe I RNP capture) [2, 7]: 10
background (spectral count, no-probe control) [2, 8]: 1

PPP1CA
target (unweighted spectral count, OC43 Probe II capture) [1, 9]: 4

PRPF8
target (unweighted spectral count, OC43 Probe II capture) [1, 11]: 7
target (unweighted spectral count, OC43 Probe II) [1, 5]: 20
background (unweighted spectral count, no-probe control) [1, 6]: 5

PRRC2A: host protein, UniProt P48634
target (unweighted spectral count, OC43 Probe II capture) [1, 9]: 10
target (unweighted spectral count) [1, 10]: 8
target (unweighted spectral count, OC43 Probe II) [1, 5]: 9
background (unweighted spectral count, no-probe control) [1, 6]: 1
target (spectral count) [2]: 12
background (spectral count) [2]: 1
target (spectral count, OC43 Probe I RNP capture) [2, 7]: 9
background (spectral count, no-probe control) [2, 8]: 1

RBPMS
target (unweighted spectral count of the protein in the RNP capture experiment) [3]: 5
back-ground (unweighted spectral count of the protein in the control experiment) [3]: 1

RP22L1
target (unweighted spectral count in RNP capture) [3]: 7
background (unweighted spectral count in control) [3]: 1

SNRNP70: host protein, UniProt P08621
target (unweighted spectral count, OC43 Probe II) [1, 5]: 8
background (unweighted spectral count, no-probe control) [1, 6]: 2
target (spectral count) [2]: 9
background (spectral count) [2]: 1

SQSTM1: host protein, UniProt Q13501
target (unweighted spectral count in RNP capture) [3]: 19
background (unweighted spectral count in control) [3]: 1
target (spectral count) [2]: 7
background (spectral count) [2]: 1

SRSF1
target (unweighted spectral count in RNP capture) [3]: 8
background (unweighted spectral count in control) [3]: 1
background (unweighted spectral count, no-probe control) [1]: 1
target (unweighted spectral count, OC43 Probe II capture) [1]: 14
target (unweighted spectral count, OC43 Probe II) [1]: 20
background (spectral count, no-probe control) [2]: 1
target (spectral count, OC43 Probe I RNP capture) [2]: 17

SSRP1
target (unweighted spectral count, OC43 Probe II capture) [1, 11]: 4

SUPT16H
target (unweighted spectral count) [1, 12]: 4

TCP1
target (unweighted spectral count, OC43 Probe II capture) [1, 9]: 4

TUBB4B
target (unweighted spectral count of the protein in the RNP capture experiment) [3]: 6
back-ground (unweighted spectral count of the protein in the control experiment) [3]: 1

USP10
target (unweighted spectral count, OC43 Probe II capture) [1, 11]: 5
target (unweighted spectral count, OC43 Probe II capture) [1, 9]: 4
target (unweighted spectral count, OC43 Probe II) [1, 5]: 7
background (unweighted spectral count, no-probe control) [1, 6]: 1
target (spectral count, OC43 Probe I RNP capture) [2, 7]: 6
background (spectral count, no-probe control) [2, 8]: 1

XRCC5: host protein, UniProt P13010
target (unweighted spectral count, OC43 Probe II capture) [1, 9]: 7
target (unweighted spectral count, OC43 Probe II) [1, 5]: 12
background (unweighted spectral count, no-probe control) [1, 6]: 1
target (spectral count) ([1]; 36 hpi): 7
background (spectral count) ([1]; 36 hpi): 1
target (spectral count) [2]: 8
background (spectral count) [2]: 1
target (spectral count, OC43 Probe I RNP capture) [2, 7]: 10
background (spectral count, no-probe control) [2, 8]: 1

YBX2: host protein, UniProt Q9Y2T7
target (unweighted spectral count, OC43 Probe II capture) [1, 9]: 9
target (unweighted spectral count, OC43 Probe II) [1, 5]: 8
background (unweighted spectral count, no-probe control) [1, 6]: 1
target (spectral count) ([1]; 36 hpi): 9
background (spectral count) ([1]; 36 hpi): 1

YP_009725304.1
target (unweighted spectral count in RNP capture) [4]: 5
background (unweighted spectral count in control) [4]: 1

ZC3H7B
target (unweighted spectral count) [1, 10]: 6

ZFR
target (unweighted spectral count, OC43 Probe II capture) [1, 11]: 4
target (unweighted spectral count, OC43 Probe II) [1, 5]: 6
background (unweighted spectral count, no-probe control) [1, 6]: 1
